Measured values from US20250257059A1, “PROTEIN TYROSINE PHOSPHATASE INHIBITORS AND USES THEREOF” (Nerio Therapeutics, Inc., priority 2022, published 2025).
pIC50: −log10 of the molar value. Where “and” joins values, the source holds several entries; their conditions need not be identical. Equal values may be shown once. Read-outs that look alike come from different tables or passages of the source.

Columns and labels:
[1] = target: full-length human PTPN2 (TC45) (1-387) (Homo sapiens (Human), UniProt P17706); assay: Enzymatic assay used to determine potency of PTPN2 inhibitors (full length PTPN2 DiFMUP assay); format: biochemical; settings: 0.5 nM PTPN2, 100 μM DiFMUP, 30 min at room temperature
Description: Compound activity was determined in an in vitro enzymatic assay using untagged, full-length human PTPN2 (TC45) (1-387) protein. PTPN2 was produced in E. coli as a GST-TEV fusion and the GST was removed by TEV digestion, followed by additional purification to yield full-length PTPN2 (SEQ ID 1). PTPN2 enzyme was diluted in assay buffer (50 mM HEPES pH7.5, 0.2 mM EDTA, 1 mM DTT, 0.02% Brij-35, 0.02% BSA) to a final concentration of 0.5 nM and added to black 384-well non-binding plates (Greiner, 781900). Compounds were subsequently added using a Tecan D300e dispenser. Following a 10 min incubation at room temperature, DiFMUP substrate (ThermoFisher, D22065) was added to a final concentration of 100 μM. Plates were transferred to a SpectraMax plate reader (Molecular Devices) and fluorescence intensity was measured (ex 358, em 455) after a 30 min incubation at room temperature. […] A four-parameter curve fit was used to determine IC50 values from % inhibition data.

[2] = test system: murine B16F10 melanoma cell line; assay: B16F10 IFNγ-induced cellular growth inhibition assay (xCELLigence RTCA); format: cell-based; settings: B16F10 cells, 1 ng/mL mouse IFNγ, AUC of growth curve, read-out: B16 IFNγ Mediated Growth Inhibition Assay: AVG IC50
Description: Compound activity was determined using an interferon gamma (IFNγ)-induced cellular growth inhibition assay with the murine B16F10 melanoma cell line on an Agilent xCELLigence Real-Time Cell Analysis platform (RTCA). RTCA E-Plate View 96 plates (Agilent, 300601010) were pre-equilibrated with 50 μL of assay media (DMEM+10% FBS, Gibco 10566-024, Gibco 10082-147) at 37° C. in a humidified incubator before taking an initial measurement of impedance (sweep). B16F10 cells cultured in assay media were dissociated with TrypLE Express (Gibco 12605-010) for five minutes at 37° C., diluted in 3 volumes of assay buffer, centrifuged for 5 minutes at 500×g at room temperature before diluting cells to 7,700 cells/mL in assay media, plating 130 μL/well (1,000 cells/well) in the inner 60 wells of the assay plate, and adding 150 μL of assay media to the outer wells of the plate. Cells were incubated at room temperature for 20 min to allow cells to settle before placing them in the xCELLigence reader and incubating overnight at 37° C., sweeping wells every 15 minutes. After 24 hours, well readings were paused, plates were removed from the incubator and compounds were added using a Tecan D300e dispenser. All wells were normalized to a final concentration of 0.5% DMSO. Following a 30 min incubation at 37° C., recombinant mouse IFNγ (R&D Systems™ 485MI100) was diluted to 10 ng/mL in assay media and 20 μL was added to assay wells (1 ng/mL final concentration). Assay plates were placed in the xCELLigence reader and swept every 15 minutes.

full-length human PTPN2 (TC45) (1-387), sequence (P17706 other isoform, or with tags, fused parts or gaps): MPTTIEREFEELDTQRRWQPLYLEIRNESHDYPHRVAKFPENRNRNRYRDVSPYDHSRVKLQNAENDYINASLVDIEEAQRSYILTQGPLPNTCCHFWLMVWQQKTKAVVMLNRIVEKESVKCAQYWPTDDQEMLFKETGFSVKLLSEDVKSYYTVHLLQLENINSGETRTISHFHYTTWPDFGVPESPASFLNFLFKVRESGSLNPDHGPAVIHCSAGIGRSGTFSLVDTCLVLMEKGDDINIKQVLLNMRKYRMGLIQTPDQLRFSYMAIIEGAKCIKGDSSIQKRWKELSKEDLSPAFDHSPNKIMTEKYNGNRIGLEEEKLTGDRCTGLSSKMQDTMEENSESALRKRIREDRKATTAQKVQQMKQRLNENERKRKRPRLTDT

pIC50 ([2]; Mus musculus, B16-F10, 48 h) | SMILES | pIC50 [1] | pIC50 ([2]; 48 hours)
– | O=C1CN(c2c(O)cc(C[C@H]3CCNC3)cc2F)S(=O)(=O)N1 (single isomer, unassigned) [Example 25] | 7.82 | –
– | O=C1CN(c2c(O)cc(C[C@@H]3CCNC3)cc2F)S(=O)(=O)N1 (single isomer, unassigned) [Example 26] | 8.10 | –
< 4.00 | O=C1CN(c2c(O)cc(C[C@H]3CCCNCC3)cc2F)S(=O)(=O)N1 (single isomer, unassigned) [Example 58] | 7.29 | –
< 4.33 | O=C1CN(c2c(O)cc(C[C@@H]3CCCNCC3)cc2F)S(=O)(=O)N1 (single isomer, unassigned) [Example 59] | 7.80 | –
6.44 | CC(C)CCN1CCCC[C@@H]1Cc1ccc(O)c(N2CC(=O)NS2(=O)=O)c1F (single isomer, unassigned) [Example 81] | 8.52 | –
4.44 | CC(C)CCN1CCCC[C@H]1Cc1ccc(O)c(N2CC(=O)NS2(=O)=O)c1F (single isomer, unassigned) [Example 82] | 7.12 | –
5.61 | CC(C)C[C@H]1CCN(CCc2cc(O)c(N3CC(=O)NS3(=O)=O)c(F)c2)C1 (single isomer, unassigned) [Example 119] | 8.70 and 8.52 | 5.80
5.74 | O=C1CN(c2c(O)cc(CCN3CC[C@H](C(F)(F)F)C3)cc2F)S(=O)(=O)N1 (single isomer, unassigned) [Example 123] | 8.70 | –
– | CN1CCC(Cc2cc(O)c(N3CC(=O)NS3(=O)=O)c(F)c2)C1 (stereo not drawn) [Example 1, 5-(2-fluoro-6-hydroxy-4-((1-methylpyrrolidin-3-yl)methyl)phenyl)-1,2,5-thiadiazolidin-3-one 1,1-dioxide] | 8.15 | –
4.55 | CC(C)N1CCC(Cc2cc(O)c(N3CC(=O)NS3(=O)=O)c(F)c2)C1 (stereo not drawn) [Example 2] | 7.85 | –
< 4.00 | CN(C)CCN1CCC(Cc2cc(O)c(N3CC(=O)NS3(=O)=O)c(F)c2)C1 (stereo not drawn) [Example 3] | 8.52 | –
< 4.00 | O=C1CN(c2c(O)cc(CC3CCN(Cc4cnco4)C3)cc2F)S(=O)(=O)N1 (stereo not drawn) [Example 4] | 7.85 | –
4.07 | O=C1CN(c2c(O)cc(CC3CCN(CCN4CCCCC4)C3)cc2F)S(=O)(=O)N1 (stereo not drawn) [Example 5] | 8.15 | –
< 4.00 | O=C1CN(c2c(O)cc(CC3CCN(Cc4ncco4)C3)cc2F)S(=O)(=O)N1 (stereo not drawn) [Example 6] | 7.70 | –
5.61 | O=C1CN(c2c(O)cc(CC3CCN(Cc4ccco4)C3)cc2F)S(=O)(=O)N1 (stereo not drawn) [Example 7] | – | –
4.73 | CCCCN1CCC(Cc2cc(O)c(N3CC(=O)NS3(=O)=O)c(F)c2)C1 (stereo not drawn) [Example 8] | 7.06 | –
4.88 | CC(C)CN1CCC(Cc2cc(O)c(N3CC(=O)NS3(=O)=O)c(F)c2)C1 (stereo not drawn) [Example 9] | 7.68 | –
– | O=C1CN(c2c(O)cc(CC3CCN(CC4CC4)C3)cc2F)S(=O)(=O)N1 (stereo not drawn) [Example 10] | 7.30 | 4.76
5.29 | CCCN1CCC(Cc2cc(O)c(N3CC(=O)NS3(=O)=O)c(F)c2)C1 (stereo not drawn) [Example 11] | 7.74 | –

pIC50 ([2]; Mus musculus, B16-F10, 48 h) | SMILES | pIC50 [1] | pIC50 ([2]; 48 hours)
5.36 | O=C1CN(c2c(O)cc(CC3CCN(Cc4ccoc4)C3)cc2F)S(=O)(=O)N1 (stereo not drawn) [Example 12] | 7.92 | –
4.44 | CCCCCCN1CCC(Cc2cc(O)c(N3CC(=O)NS3(=O)=O)c(F)c2)C1 (stereo not drawn) [Example 13] | 7.89 | –
4.28 | O=C1CN(c2c(O)cc(CC3CCN(CC4CCCO4)C3)cc2F)S(=O)(=O)N1 (stereo not drawn) [Example 14] | 7.85 | –
< 4.32 | O=C1CN(c2c(O)cc(CC3CCN(CC4CCOC4)C3)cc2F)S(=O)(=O)N1 (stereo not drawn) [Example 15] | 7.62 | –
4.45 | O=C1CN(c2c(O)cc(CC3CCN(Cc4cocn4)C3)cc2F)S(=O)(=O)N1 (stereo not drawn) [Example 16] | 7.80 | –
< 4.28 | O=C1CN(c2c(O)cc(CC3CCN(Cc4ncc[nH]4)C3)cc2F)S(=O)(=O)N1 (stereo not drawn) [Example 17] | 8.15 | –
< 4.24 | O=C1CN(c2c(O)cc(CC3CCN(Cc4ccn[nH]4)C3)cc2F)S(=O)(=O)N1 (stereo not drawn) [Example 18] | 8.15 | –
5.07 | CC(C)CCN1CCC(Cc2cc(O)c(N3CC(=O)NS3(=O)=O)c(F)c2)C1 (stereo not drawn) [Example 19] | 7.92 | –
5.58 | CC(C)(C)CN1CCC(Cc2cc(O)c(N3CC(=O)NS3(=O)=O)c(F)c2)C1 (stereo not drawn) [Example 20] | 7.82 | –
5.34 | O=C1CN(c2c(O)cc(CC3CCN(CC4CCCC4)C3)cc2F)S(=O)(=O)N1 (stereo not drawn) [Example 21] | 7.82 | –
5.91 | O=C1CN(c2c(O)cc(CC3CCN(CC4CCC4)C3)cc2F)S(=O)(=O)N1 (stereo not drawn) [Example 22] | 8.00 | –
5.36 | CC(C)(C)CCN1CCC(Cc2cc(O)c(N3CC(=O)NS3(=O)=O)c(F)c2)C1 (stereo not drawn) [Example 23] | 7.85 | –
5.23 | CCCCCN1CCC(Cc2cc(O)c(N3CC(=O)NS3(=O)=O)c(F)c2)C1 (stereo not drawn) [Example 24] | 7.82 | –
5.01 | O=C1CN(c2c(O)cc(CC3CCNC3)cc2F)S(=O)(=O)N1 (stereo not drawn) [Example 27] | 8.15 | –
< 4.24 | CCCC1NCCC1Cc1cc(O)c(N2CC(=O)NS2(=O)=O)c(F)c1 (stereo not drawn) [Example 28] | 7.64 | –
< 4.21 | CCCC1CNCC1Cc1cc(O)c(N2CC(=O)NS2(=O)=O)c(F)c1 (stereo not drawn) [Example 29] | 7.89 | –
< 4.89 | CCC1CNCC1Cc1cc(O)c(N2CC(=O)NS2(=O)=O)c(F)c1 (stereo not drawn) [Example 30] | 7.89 | –
– | O=C1CN(c2c(O)cc(CC3CCCN(Cc4cocn4)C3)cc2F)S(=O)(=O)N1 (stereo not drawn) [Example 47] | 7.01 | –
– | O=C1CN(c2c(O)cc(CC3CCCNCC3)cc2F)S(=O)(=O)N1 (stereo not drawn) [Example 57] | 7.82 | –

pIC50 ([2]; Mus musculus, B16-F10, 48 h) | SMILES | pIC50 [1] | pIC50 ([2]; 48 hours)
– | O=C1CN(c2c(O)ccc(CC3CCCCN3)c2F)S(=O)(=O)N1 (stereo not drawn) [Example 75] | 7.70 | –
5.46 | CC(C)CCCN1CCCCC1Cc1ccc(O)c(N2CC(=O)NS2(=O)=O)c1F (stereo not drawn) [Example 79] | – | –
4.64 | O=C1CN(c2c(O)ccc(CC3CCCCN3CCC3CCCC3)c2F)S(=O)(=O)N1 (stereo not drawn) [Example 80] | – | –
5.05 | O=C1CN(c2c(O)cc(CCN3CCOCC3)cc2F)S(=O)(=O)N1 [Example 89] | – | –
5.81 | O=C1CN(c2c(O)cc(CCN3CCCC(F)C3)cc2F)S(=O)(=O)N1 (stereo not drawn) [Example 97] | – | –
6.14 | COC1CCN(CCc2cc(O)c(N3CC(=O)NS3(=O)=O)c(F)c2)CC1 [Example 104] | – | –
6.89 | CC(C)(C)C1CCN(CCc2cc(O)c(N3CC(=O)NS3(=O)=O)c(F)c2)C1 (stereo not drawn) [Example 111] | – | –
6.78 | O=C1CN(c2c(O)cc(CCN3CCC4(CCCC4)C3)cc2F)S(=O)(=O)N1 [Example 112] | – | –
6.67 | O=C1CN(c2c(O)cc(CCN3CCC4(CCOCC4)C3)cc2F)S(=O)(=O)N1 [Example 113] | – | –
6.48 | COC[C@@H]1CCN(CCc2cc(O)c(N3CC(=O)NS3(=O)=O)c(F)c2)C1 [Example 117] | – | –
5.58 | CC(C)C[C@@H]1CCN(CCc2cc(O)c(N3CC(=O)NS3(=O)=O)c(F)c2)C1 [Example 120] | – | –
5.57 | O=C1CN(c2c(O)cc(CCN3CC[C@@H](C(F)(F)F)C3)cc2F)S(=O)(=O)N1 [Example 122] | – | –
6.18 | CC1(C)CN(CCc2cc(O)c(N3CC(=O)NS3(=O)=O)c(F)c2)C1 [Example 127] | – | –
6.21 | O=C1CN(c2c(O)cc(CCN3Cc4ccccc4C3)cc2F)S(=O)(=O)N1 [Example 128] | – | –
6.29 | CC(C)[C@@H]1CCN(CCc2cc(O)c(N3CC(=O)NS3(=O)=O)c(F)c2)C1 [Example 134] | – | –
6.54 | CC(C)[C@H]1CCN(CCc2cc(O)c(N3CC(=O)NS3(=O)=O)c(F)c2)C1 [Example 135] | – | –
6.03 | O=C1CN(c2c(O)cc(CCN3CC(F)C3)cc2F)S(=O)(=O)N1 [Example 136] | – | –
5.67 | O=C1CN(c2c(O)cc(CCN3CC(C(F)(F)F)C3)cc2F)S(=O)(=O)N1 [Example 137] | – | –
6.33 | CC1CN(CCc2cc(O)c(N3CC(=O)NS3(=O)=O)c(F)c2)C1 [Example 140] | – | –
